Calls of active or inactive are those of the source. The rule behind the calls is not given here.

The source of these data is ChEMBL document CHEMBL4219060, “Discovery of EBI-1051: A novel and orally efficacious MEK inhibitor with benzofuran scaffold” (Bioorg Med Chem, 2018).

Data set [1] deals with COLO 205. In words: Antiproliferative activity against human COLO205 cells harboring BRAF mutant/wild type KRAS/wild type PIK3CA after 72 hrs by CCK8 assay. The note with it: COLO 205, 72 h. A general note: Formazan colour is commonly taken as a measure of viable cells.
Data set [2] has as its target Dual specificity mitogen-activated protein kinase kinase 1 (Homo sapiens, UniProt Q02750).
Description: Inhibition of MEK1 (unknown origin) using Ser/Thr 03 peptide substrate after 4 hrs by fluorescence assay
For another data set, the system named is MDA-MB-231. In words: Antiproliferative activity against human MDA-MB-231 cells harboring KRAS mutant/wild type BRAF/PIK3CA after 72 hrs by CCK8 assay. It is filed as functional, cell-based.
The test system of data set [3] is COLO 205. The experiment in a line: Antitumor activity against human COLO205 cells xenografted in athymic nude mouse assessed as tumor growth inhibition at 10 mg/kg, po qd for 14 days measured twice per week during compound dosing relative to control. The note with it: COLO 205, po, 336 h, read-out: TGI. (In general: A xenograft is tissue or cells of one species grown in another, often human tumour cells in immunodeficient mice.)

The test system of a further data set is A549. The experiment in a line: Antiproliferative activity against human A549 cells harboring KRAS mutant/wild type BRAF/PIK3CA after 72 hrs by CCK8 assay. It is filed as functional, cell-based.
For another data set, the system named is Mus musculus. The experiment in a line: Toxicity in athymic nude mouse xenografted with human COLO205 cells assessed as body weight loss at 10 mg/kg, po qd for 14 days measured twice per week during compound dosing. In kind it is organism-based. Conditions: in vivo, 336 h.
The nature of data set [4]: Half life in Sprague-Dawley rat at 10 mg/kg, po via gavage. Conditions: in vivo. In kind it is ADME, organism-based.
Data set [5] in a line: Clearance in Sprague-Dawley rat at 2 mg/kg, iv. In kind it is ADME, organism-based. The note with it: in vivo.
Data set [6] can be described thus: Cmax in Sprague-Dawley rat at 10 mg/kg, po via gavage. Conditions: in vivo. In kind it is ADME, organism-based. More on the design: dose 10 mg/kg, route oral.
A short description of data set [7]: AUC (0 to t) in Sprague-Dawley rat at 10 mg/kg, po via gavage. In kind it is ADME, organism-based. The note with it: in vivo.
A short description of data set [8]: Oral bioavailability in Sprague-Dawley rat at 10 mg/kg via gavage. It is filed as ADME, organism-based. The note with it: in vivo.
A short description of data set [9]: Volume of distribution at steady state in Sprague-Dawley rat at 2 mg/kg, iv. It is filed as ADME, organism-based. Conditions: in vivo, read-out: Vdss.
Another data set relates to SW480. The experiment in a line: Antiproliferative activity against human SW480 cells harboring KRAS mutant/wild type BRAF/PIK3CA after 72 hrs by CCK8 assay. It is filed as functional, cell-based.
Another data set has as its system NCI-H1299. In words: Antiproliferative activity against human NCI-H1299 cells harboring wild type BRAF/KRAS/PIK3CA after 72 hrs by CCK8 assay. In kind it is functional, cell-based.
In a further data set the test system is U-937. In words: Antiproliferative activity against human U937 cells harboring wild type BRAF/KRAS/PIK3CA after 72 hrs by CCK8 assay. In kind it is functional, cell-based.
The subject of a further data set is HT-29. In words: Antiproliferative activity against human HT-29 cells harboring BRAF mutant/PIK3CA mutant/wild type KRAS after 72 hrs by CCK8 assay. It is filed as functional, cell-based.
The test system of a further data set is HeLa. In words: Antiproliferative activity against human HeLa cells harboring wild type BRAF/KRAS/PIK3CA after 72 hrs by CCK8 assay. In kind it is functional, cell-based.
Another data set relates to Calu-6. In words: Antiproliferative activity against human Calu6 cells harboring KRAS mutant/wild type BRAF/PIK3CA after 72 hrs by CCK8 assay. It is filed as functional, cell-based.
A further data set concerns DLD-1. In words: Antiproliferative activity against human DLD1 cells harboring KRAS mutant/wild type BRAF/PIK3CA D549N mutant after 72 hrs by CCK8 assay. In kind it is functional, cell-based.

Sequence of Dual specificity mitogen-activated protein kinase kinase 1 (Q02750 whole entry): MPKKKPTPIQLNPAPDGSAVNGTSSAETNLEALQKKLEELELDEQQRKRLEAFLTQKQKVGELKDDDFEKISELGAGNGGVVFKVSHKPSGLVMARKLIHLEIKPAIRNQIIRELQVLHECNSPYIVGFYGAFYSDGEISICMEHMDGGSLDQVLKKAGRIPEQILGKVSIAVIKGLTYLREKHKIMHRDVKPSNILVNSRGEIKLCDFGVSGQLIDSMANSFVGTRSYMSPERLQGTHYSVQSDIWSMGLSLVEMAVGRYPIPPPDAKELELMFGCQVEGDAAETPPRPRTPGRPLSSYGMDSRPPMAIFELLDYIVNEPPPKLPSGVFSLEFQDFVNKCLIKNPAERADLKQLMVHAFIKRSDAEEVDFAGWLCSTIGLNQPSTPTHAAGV

As a reminder, the IC50 is the concentration that inhibits the measured activity by half. Read a low IC50 as greater potency. In the case of `O=C(NOCCO)c1cc2c(c(F)c1Nc1ccc(I)cc1F)OCC2`, in the data set on COLO 205 [1], the IC50 was determined as 0.01 µM.

Take `O=C(NOCCO)c1cc2c(cc1Nc1ccc(I)cc1F)OCC2`: the IC50 in the data set on COLO 205 [1] was above 1 µM.

Regarding `O=C(NOC[C@@H](O)CO)c1cc2c(c(F)c1Nc1ccc(I)cc1F)OCC2`, 0.0901 µM corresponded to half-maximal inhibition with COLO 205 [1] (IC50).

In the data set on COLO 205 [1], `CC(C)(CO)ONC(=O)c1cc2ccoc2c(F)c1Nc1ccc(I)cc1F` showed a half-maximal inhibitory concentration (IC50) of 0.012 µM.

Turning to `O=C(c1cc2c(c(F)c1Nc1ccc(I)cc1F)OCC2)N1C[C@@H](O)CO1`, the half-maximal inhibitory concentration (IC50) (in the data set with COLO 205 [1]; in [2]) was above 1 µM in each case.

Regarding `O=C(NOCCCO)c1cc2ccoc2c(F)c1Nc1ccc(I)cc1F`, the midpoint of inhibition in the data set on COLO 205 [1], the IC50, lay at 0.0765 µM.

Take `Cn1cnc2c(F)c(Nc3ccc(Br)cc3Cl)c(C(=O)NOCCO)cc21` [SELUMETINIB]: in the data set on COLO 205 [1], the 50% inhibitory concentration (IC50) was 0.059 µM. Moreover, the result in the data set with MDA-MB-231 and in the data set with A549 was inactive. Further, the inhibition in vivo at 10 mg/kg with COLO 205 [3] stood at 60%. Besides, the Activity entry with Mus musculus was “Non-Toxic”.

What is called half-life is how long it takes for the measured level to halve. A higher half-life goes with slow decline. For orientation: clearance means the rate of elimination divided by the concentration. The low end stands for a low capacity for elimination, the high end for a high capacity for elimination. As usually defined, the Cmax is the peak of the concentration-time curve. Usually AUC(0-t) stands for the area under the concentration-time curve up to a stated or last time point. As a reminder, the bioavailability is the share of a dose that reaches the circulation, judged against a reference dose that is usually intravenous. Read a high bioavailability as good availability. Regarding `O=C(NOC[C@H](O)CO)c1cc2c(c(F)c1Nc1ccc(I)cc1F)OCC2`, the 50% inhibitory concentration (IC50) in the data set on COLO 205 [1] was 0.0072 µM. The half-life in [4] was 2 h. The same molecule came in with a clearance in data set [5] of 73.6 mL/min/kg. The molecule also came in with a Cmax in data set [6] of 342 ng/mL. In [7], this molecule returned an area under the curve AUC(0-t) of 1470 ng·h/mL. In addition, the bioavailability in [8] was found to be 62%. For the same molecule, the Vd in data set [9] is 9.4 L/kg.

`O=C(NOCCO)c1cc2c(c(F)c1Nc1ccc(Br)cc1Cl)OCC2`: the concentration for half-maximal inhibition (IC50) in the data set on COLO 205 [1] was above 1 µM.

Regarding `O=C(NOC(CO)CO)c1cc2ccoc2c(F)c1Nc1ccc(I)cc1F`, the outcome in the data set with SW480, in the data set with HT-29, in the data set with Calu-6, with DLD-1, in the data set on MDA-MB-231 and in the data set on A549 was Active. The result in the data set on NCI-H1299, with U-937 and in the data set on HeLa was inactive. For the same molecule, the IC50 in the data set on COLO 205 [1] was 0.0047 µM. In addition, the half-life in [4] was 2.5 h. Besides, the clearance in data set [5] is 3.4 mL/min/kg. Besides, in [6], the concentration peaked (Cmax) at 13600 ng/mL. This molecule gave an area under the curve AUC(0-t) in data set [7] of 43300 ng·h/mL. In data set [8], this molecule gave a bioavailability of 80%. In the data set on COLO 205 [3], the inhibition in vivo at 10 mg/kg was found to be 78%. Further, the Vd in data set [9] came out at 0.8 L/kg. Further, in the data set on Mus musculus, the Activity entry is recorded as “Non-Toxic”.

`O=C(NOC[C@H](O)CO)c1cc2ccoc2c(F)c1Nc1ccc(I)cc1F`: in the data set with COLO 205 [1], the IC50 was 0.0025 µM. Also, in data set [4], the half-life was 3.4 h. Also, the peak level in data set [6] (Cmax) was 695 ng/mL. Also, the AUC(0-t) in [7] was found to be 2860 ng·h/mL.

On to `O=C(NC[C@@H](O)CO)c1cc2c(c(F)c1Nc1ccc(I)cc1F)OCC2`, for which the half-maximal inhibitory concentration (IC50) in data set [2] is above 1 µM.

`O=C(NOCCO)c1cc2c(c(Cl)c1Nc1ccc(I)cc1F)OCC2` registered a 50% inhibitory concentration (IC50) in the data set on COLO 205 [1] of 0.0384 µM.

`O=C(NC[C@H](O)CO)c1cc2c(c(F)c1Nc1ccc(I)cc1F)OCC2`: the IC50 in data set [2] is above 1 µM.

With `O=C(NOCCO)c1cc2ccoc2c(F)c1Nc1ccc(I)cc1F`, the IC50 in the data set on COLO 205 [1] came out at 0.0029 µM. Also, the half-life in data set [4] was 1.7 h. This molecule also displayed a maximum concentration (Cmax) in data set [6] of 2080 ng/mL. The molecule further gave an AUC(0-t) in data set [7] of 8370 ng·h/mL.
